Test results taken from PubChem BioAssay (NCI).
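Following 48 hours of exposure in 96-well plates, responses at five concentrations were used to interpolate endpoints linearly. TGI marks complete inhibition of growth.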

Columns and labels:
Assay in all cases: NCI-60 cell line screen, 48 h
RXF 393 renal = tested on: RXF 393 renal
OVCAR-4 ovarian = tested on: OVCAR-4 ovarian
KM12 colon = tested on: KM12 colon
A549 NSCLC = tested on: A549 NSCLC
A498 renal = tested on: A498 renal
NCI-H226 lung = tested on: NCI-H226 lung
MDA-MB-435 = tested on: MDA-MB-435
SK-MEL-5 melanoma = tested on: SK-MEL-5 melanoma
UACC-257 melanoma = tested on: UACC-257 melanoma
M14 melanoma = tested on: M14 melanoma
SF-268 CNS = tested on: SF-268 CNS
SR leukemia = tested on: SR leukemia
MALME-3M melanoma = tested on: MALME-3M melanoma
HOP-62 NSCLC = tested on: HOP-62 NSCLC
NCI-H23 lung = tested on: NCI-H23 lung
UO-31 renal = tested on: UO-31 renal
SNB-19 CNS = tested on: SNB-19 CNS
TK-10 renal = tested on: TK-10 renal
HCC-2998 colon = tested on: HCC-2998 colon
HCT-15 colon = tested on: HCT-15 colon
ACHN renal = tested on: ACHN renal
MDA-MB-231 breast = tested on: MDA-MB-231 breast
NCI/ADR-RES ovarian = tested on: NCI/ADR-RES ovarian
U251 CNS = tested on: U251 CNS
SK-OV-3 ovarian = tested on: SK-OV-3 ovarian
HT29 colon = tested on: HT29 colon
OVCAR-3 ovarian = tested on: OVCAR-3 ovarian
UACC-62 melanoma = tested on: UACC-62 melanoma
SNB-75 CNS = tested on: SNB-75 CNS
786-0 renal = tested on: 786-0 renal
SW-620 colon = tested on: SW-620 colon
SK-MEL-2 melanoma = tested on: SK-MEL-2 melanoma
HCT-116 colon = tested on: HCT-116 colon
COLO 205 colon = tested on: COLO 205 colon
CAKI-1 renal = tested on: CAKI-1 renal
HS 578T breast = tested on: HS 578T breast
PC-3 prostate = tested on: PC-3 prostate
T-47D breast = tested on: T-47D breast
SF-295 CNS = tested on: SF-295 CNS
MOLT-4 leukemia = tested on: MOLT-4 leukemia
HOP-92 NSCLC = tested on: HOP-92 NSCLC
OVCAR-5 ovarian = tested on: OVCAR-5 ovarian
DU-145 prostate = tested on: DU-145 prostate
BT-549 breast = tested on: BT-549 breast
SF-539 CNS = tested on: SF-539 CNS
EKVX NSCLC = tested on: EKVX NSCLC
NCI-H460 lung = tested on: NCI-H460 lung

Measured: TGI

Cc1c(/C=N\NC(=S)NCCNC(=S)N/N=C\c2c(C)n(C)n(-c3ccccc3)c2=O)c(=O)n(-c2ccccc2)n1C
> 100 µM: all assays above
